Measured values as given in patent US7323456B2, “Carboxylic acid derivatives compounds and agents comprising the compounds as active ingredient” (Ono Pharmaceutical Co., Ltd., priority 2001, dated 2008).

How the values were obtained:
human PPAR α = target: T1, human PPAR α (Homo sapiens, UniProt Q07869); experiment: Luciferase assay of PPAR α agonistic activity (Gal4-PPAR chimeric receptor, CV-1 cells); assay type: cell-based; conditions: compound 10 μM, luciferase activity of carbacyclin (10 μM) defined as 1.0, 42 hours
T1 construct: expressed in transfected cells; host or cells: CV-1 cells
T1 sequence (Q07869 167-468): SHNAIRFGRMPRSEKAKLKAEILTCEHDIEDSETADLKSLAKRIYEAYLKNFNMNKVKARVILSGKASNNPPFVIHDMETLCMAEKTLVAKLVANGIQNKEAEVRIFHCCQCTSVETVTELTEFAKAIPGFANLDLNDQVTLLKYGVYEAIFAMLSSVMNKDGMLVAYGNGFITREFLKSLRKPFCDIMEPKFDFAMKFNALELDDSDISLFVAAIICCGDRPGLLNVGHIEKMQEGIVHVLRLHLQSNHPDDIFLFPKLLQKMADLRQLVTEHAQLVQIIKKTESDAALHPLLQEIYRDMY

human PPAR γ = target: T2, human PPAR γ (Homo sapiens, UniProt P37231); experiment: Luciferase assay of PPAR γ agonistic activity (Gal4-PPAR chimeric receptor, CV-1 cells); assay type: cell-based; conditions: compound 10 μM, luciferase activity of troglitazone (10 μM) defined as 1.0, 42 hours
T2 construct: expressed in transfected cells; host or cells: CV-1 cells
T2 sequence (P37231 204-505): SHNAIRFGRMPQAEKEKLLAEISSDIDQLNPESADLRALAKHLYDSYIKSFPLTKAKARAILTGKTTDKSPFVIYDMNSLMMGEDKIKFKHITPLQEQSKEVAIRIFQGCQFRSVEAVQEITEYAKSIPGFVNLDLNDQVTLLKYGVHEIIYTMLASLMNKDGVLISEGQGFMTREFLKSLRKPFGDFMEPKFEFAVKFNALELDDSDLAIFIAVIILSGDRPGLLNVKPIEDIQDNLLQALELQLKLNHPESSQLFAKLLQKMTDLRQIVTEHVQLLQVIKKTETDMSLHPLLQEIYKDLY

## C=CCN(CC(=O)O)Cc1cccc(OCCc2nc(-c3ccc(N4CCCCCC4)nc3)oc2C)c1 [Example 2, 2-(N-allyl-N-(3-(2-(2-(6-(perhydroazepin-1-yl)pyridin-3-yl)-5-methyloxazol-4-yl)ethoxy)benzyl)amino)acetic acid]
Human PPAR α
  Relative Activity to a positive control compound (carbacyclin = 1): 0.9
Human PPAR γ
  Relative Activity to a positive control compound (troglitazone = 1): 11.5
